Test results reported in PMC11649918, “Development of a RIPK1 degrader to enhance antitumor immunity” (Nature Communications, 2024).
Residues, ends and D or L forms follow the SMILES beside them. *: point of attachment. Cbz = O=C(OCc1ccccc1)*; CH2F = FC*

Columns and labels:
B16F10 cells = test: TNFα-mediated apoptosis in B16F10 cells (Annexin V/PI, caspase 3/7, PARP); assay type: cell-based, mouse; conditions: 72 h
Method: Fig. 3 LD4172 sensitizes B16F10 cells to TNFα-mediated apoptosis. B16F10 cells were treated with or without TNFα (100 ng/mL), Z-VAD-FMK (25 μM), LD4172 (1 μM), and/or T2I (1 μM) for 72 h. A NF-κB activity in B16F10 cells expressing a NanoLuc reporter for NF-κB response. Data represent the mean NF-κB activity ± SD (n = 3 biologically independent samples from two independent experiments). Statistical significance was determined using a two-tailed unpaired t-test, with P values indicated. B Representative flow cytometry dot plots showing apoptosis in B16F10 cells from three independent experiments (n = 3 biologically independent samples per experiment). […] Cell death was quantified by PI uptake using the Cytation 5 imager. D Top: Percentage of PI+ B16F10 cells after 72 h of the indicated treatments, calculated as PI+ (%) = (Number of PI+ cells/Total cells) × 100%, using the Cytation 5 imager. […] Statistical significance was determined using a two-tailed unpaired t-test, with P values indicated. […] E Top: Quantification of extracellular ATP levels secreted by B16F10 cells. Data represent mean extracellular ATP levels ± SD (n = 4 biologically independent samples from one experiment), with statistical significance determined by a two-tailed unpaired t-test, and P values indicated. […]

RIPK1 [1] = target: T1, RIPK1 (Homo sapiens, UniProt Q13546); test: RIPK1 degradation by Western blot in Jurkat cells; assay type: cell-based; conditions: 4 h pretreatment followed by LD4172
T1 construct: whole-cell lysates were prepared using a lysis buffer; endogenous in cells; host or cells: Jurkat
T1 sequence (Q13546 1-671): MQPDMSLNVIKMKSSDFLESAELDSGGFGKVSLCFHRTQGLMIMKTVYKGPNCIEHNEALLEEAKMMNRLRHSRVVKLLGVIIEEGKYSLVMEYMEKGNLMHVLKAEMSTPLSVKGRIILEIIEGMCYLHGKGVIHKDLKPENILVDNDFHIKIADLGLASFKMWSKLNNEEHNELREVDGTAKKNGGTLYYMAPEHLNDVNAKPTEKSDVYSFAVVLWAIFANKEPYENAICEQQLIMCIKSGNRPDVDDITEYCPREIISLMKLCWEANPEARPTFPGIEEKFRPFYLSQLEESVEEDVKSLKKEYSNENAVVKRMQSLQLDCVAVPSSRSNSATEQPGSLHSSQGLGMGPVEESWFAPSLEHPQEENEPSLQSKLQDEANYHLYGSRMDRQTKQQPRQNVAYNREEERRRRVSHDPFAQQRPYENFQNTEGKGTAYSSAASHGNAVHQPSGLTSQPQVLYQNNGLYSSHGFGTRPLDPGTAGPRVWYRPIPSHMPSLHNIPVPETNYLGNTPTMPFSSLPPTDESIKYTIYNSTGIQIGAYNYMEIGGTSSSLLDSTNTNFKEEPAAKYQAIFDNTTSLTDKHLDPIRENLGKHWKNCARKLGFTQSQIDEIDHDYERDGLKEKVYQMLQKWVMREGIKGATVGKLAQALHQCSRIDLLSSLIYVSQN
Method: (§1) Cells were seeded into six-well plates at a density of 5 × 10^5 cells/mL in 2 mL of complete culture medium. Following an overnight adaptation period, cells were treated with serially diluted LD4172 compounds for 24 h. After treatment, whole-cell lysates were prepared using a lysis buffer (1×RIPA supplemented with protease and phosphatase inhibitor cocktail). Protein concentrations in the lysates were measured using the BCA protein assay. Subsequently, equal amounts of protein (20 µg) from each sample were loaded onto a sodium dodecyl sulfate-polyacrylamide gel and separated by electrophoresis (Bio-Rad) at 120 V for 1.5 h. The separated proteins were then transferred to a polyvinylidene fluoride (PVDF) membrane using a Transblot Turbo system (Bio-Rad).
(§2) After blocking for 1 h at room temperature in 1% BSA-TBST, the membranes were incubated overnight at 4 °C with specific primary antibodies (diluted at 1:1000 in TBST) targeting the proteins of interest, including anti-RIPK1 (3493, Cell Signaling Technology (CST)), anti-cleaved caspase 3 (9661, CST), anti-cleaved caspase7 (8438, CST), anti-cleaved PARP (5625, CST), anti-HMGB1 (3935, CST), anti-calreticulin (12238, CST), and anti-β-actin (4970, CST). […] All western blots were processed and quantified using ImageJ software, and protein levels were normalized to β-actin loading controls.

RIPK1 [2] = target: T2, RIPK1 (Mus musculus, UniProt Q60855); test: RIPK1 degradation by Western blot in B16F10 cells; assay type: cell-based; conditions: 4 h pretreatment followed by LD4172
T2 construct: endogenous in cells; host or cells: B16F10
T2 sequence (Q60855 1-656): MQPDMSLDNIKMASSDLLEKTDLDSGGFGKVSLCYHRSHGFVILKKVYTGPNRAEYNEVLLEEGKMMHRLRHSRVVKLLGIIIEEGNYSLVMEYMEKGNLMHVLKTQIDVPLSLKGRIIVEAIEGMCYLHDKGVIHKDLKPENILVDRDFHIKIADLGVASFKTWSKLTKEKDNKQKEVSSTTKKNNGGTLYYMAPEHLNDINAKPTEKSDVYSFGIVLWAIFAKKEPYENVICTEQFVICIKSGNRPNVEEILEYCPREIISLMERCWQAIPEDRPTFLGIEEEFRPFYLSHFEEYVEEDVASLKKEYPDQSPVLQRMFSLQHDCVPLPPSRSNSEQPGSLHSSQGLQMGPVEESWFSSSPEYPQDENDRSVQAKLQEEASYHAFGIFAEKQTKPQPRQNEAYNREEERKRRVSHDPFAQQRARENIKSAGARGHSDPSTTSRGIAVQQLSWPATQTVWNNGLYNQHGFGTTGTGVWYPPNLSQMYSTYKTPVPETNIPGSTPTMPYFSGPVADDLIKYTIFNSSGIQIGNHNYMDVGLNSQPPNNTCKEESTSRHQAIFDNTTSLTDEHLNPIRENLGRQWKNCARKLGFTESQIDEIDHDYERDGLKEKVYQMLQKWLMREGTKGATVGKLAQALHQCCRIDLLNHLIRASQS
Method: as §1, §2

NF-κB = NF-κB reporter assay in B16F10 cells; assay type: cell-based, mouse; conditions: TNFα 100 ng/mL, compound 1 μM
Method: One million B16F10 cells were seeded in T25 flask. The next day, cells were transfected with the NanoLuc Reporter Vector with NF-κB Response Element (pNL3.2.NF-kB-RE; Promega; Cat. No. N1111) using Lipofectamine 3000 transfection reagent (Invitrogen) at a ratio of 1:3, DNA:Lipofectamine. After 24 h, cells were collected and seeded at 2000 cells per well in triplicate in an opaque 96 well plate. 24 h later the media was discarded and replaced with fresh DMEM media and treated with indicated cytokine cocktail for 24 h. Reporter expression was read out using the Nano-Glo Luciferase Assay System (Promega) according to the manufacturer’s instruction.

B16F10 tumors = test: B16F10 syngeneic tumor model; assay type: in vivo, C57BL/6J mice; conditions: compound 20 mg/kg i.p. daily plus anti-PD1 100 µg every 3 days
Method: To establish a syngeneic mouse model, 3 × 10^5 B16F10 cells resuspended in PBS were mixed 1:1 with Matrigel (354262, Corning) and subcutaneously injected into the right flank of 7-week-old wild-type female C57BL/6J mice on day 0. Tumor sizes were measured on day 6, and mice were grouped such that the average tumor volume was ~100 mm³. Treatments began on day 7. Antibodies, including anti-PD1 (100 μg, BE0146, BioXcell) and anti-CD8 (500 μg, BE0004, BioXcell), were administered intraperitoneally every 3 days in 100 μL volumes. The RIPK1 degrader LD4172 and RIPK1 kinase inhibitor T2I were delivered in 200 μL of vehicle solution (30% PEG400, 5% Tween-80, 5% DMSO) daily via intraperitoneal injection (20 mg/kg). T-cell depletion or blocking was confirmed by flow cytometry in tumor-bearing mice. Tumors were measured every 3 days starting from day 7 post-injection until euthanasia. Mice were euthanized via CO2 inhalation when the tumor size reached 1.5 cm in the longest dimension or if severe necrosis was observed. Tumor volume was calculated using the formula: (L × W ²)/2, where L represents the length and W the width. To comply with ethical guidelines and ensure data quality, animals were humanely euthanized either when tumors reached the maximum permitted size or immediately before flow cytometry analysis, which required fresh tumor tissues. […]

| LD4172-induced RIPK1 degradation after pretreatment (RIPK1 [1]) | LD4172-induced RIPK1 degradation after pretreatment (RIPK1 [2]) | SMILES | further results |
| --- | --- | --- | --- |
| – | – | COC(=O)C[C@H](NC(=O)[C@H](C)NC(=O)[C@@H](NC(=O)OCc1ccccc1)C(C)C)C(=O)CF [Z-VAD-FMK] (Cbz-Val-Ala-Asp(OMe)-CH2F) | reversal of apoptosis induced by TNFα and LD4172 (B16F10 cells; Z-VAD-FMK 25 μM): reversed |
| reversed | reversed | CC(C)C[C@H](NC(=O)[C@H](CCc1ccccc1)NC(=O)CN1CCOCC1)C(=O)N[C@@H](Cc1ccccc1)C(=O)N[C@@H](CC(C)C)C(=O)[C@@]1(C)CO1 [carfilzomib] | – |
| reversed | reversed | NS(=O)(=O)OC[C@@H]1C[C@@H](n2ccc3c(N[C@H]4CCc5ccccc54)ncnc32)C[C@@H]1O [MLN4924] | – |
| – | – | CCn1cc(-c2ccc3c(c2)CCN3C(=O)Cc2cccc(OC(F)(F)F)c2)c2c(N)ncnc21 [T2I] | TNF-α-induced NF-κB activity (NF-κB): not; TNFα-mediated apoptosis (B16F10 cells; TNFα 100 ng/mL, compound 1 μM): did not trigger TNFα-mediated apoptosis; tumor response in combination with anti-PD1 (B16F10 tumors): failed to sensitize B16F10 tumors to anti-PD1 treatment |
